{
  "source": "patent US20080075677A1",
  "about": "“Antioxidant Complex and a Cosmetic and Pharmaceutical Composition Comprising Said Complex” (priority 2004, published 2008)",
  "assay": "DPPH free-radical test of antioxidant potential",
  "format": "biochemical",
  "description": "Objective: analyzing the antioxidant potential of the complex of the present invention in comparison with other known antioxidant system compositions. A solution of 0.004% of DPPH (diphenyl […] hydrazyl) in ethanol was used. The action of DPPH on ethanol generates free radicals, forming colorful aducts, which are spectrophotometrically detected. Further, a solution of BHT in ethanol was used and its solutions described in the table below. Tubes with the DPPH solution and the compositions of the above products were prepared.",
  "data": [
    {"smiles": "O=C1O[C@H]([C@@H](O)CO)C(O)=C1O", "note": "[vitamin C, ascorbic acid]", "values": [
      {"measurement": "effect of vitamin C on the potential of the antioxidant complex at determined concentrations", "setting": "at determined concentrations of vitamin C", "result": "causes reduction of said potential"},
      {"measurement": "effect of the presence of vitamin C on the potential of the antioxidant complex", "setting": "vitamin C added to the antioxidant complex composition", "result": "does not improve the potential"}
    ]}
  ]
}
